Patent US20260184669A1, “LIPID COMPOUND AND COMPOSITION FOR DELIVERY OF ACTIVE SUBSTANCE” (KOREA RESEARCH INSTIUTE OF BIOSCIENCE AND BIOTECHNOLOGY, priority 2022, published 2026)

How the values were obtained:
[1] = Stability of mRNA-LNPs according to storage temperature and duration; format: physicochemical; conditions: for Normalized EE % D-1 / Size (nm) D-1 / PDI D-1: day 1; for Normalized EE % D-7 / PDI D-7 / Size (nm) D-7: day 7; for Normalized EE % D-30 / PDI D-30 / Size (nm) D-30: day 30
Procedure: Stability of fLuc mRNA-LNPs produced using various ionizable lipids according to the method of Example 27, was assessed by storing the LNPs at 4° C. and 25° C. At 1, 7, and 30 days post-manufacture, the size, PDI, and encapsulation efficiency (EE) of each mRNA-LNPs samples were measured using the methods described in Experimental Examples 2 and 3.

[2] = mRNA encapsulation efficiency (Quant-IT RiboGreen RNA assay); format: physicochemical; conditions: mRNA encapsulation efficiency of mRNA-LNP made with the ionizable lipid; average of two measurements
Procedure: The mRNA encapsulation efficiency (EE, %) of LNPs containing mRNA was measured using the Quant-IT™ RiboGreen® RNA assay kit (Invitrogen, USA).
The diluted samples were added to each well of a 96-well plate. Group A (without Triton X-100) was supplemented with 50 μL of 1×TE buffer, while Group B (with Triton X-100) was supplemented with 50 μL of 1×TE buffer containing 2% Triton-X 100. To release the encapsulated mRNA, the LNPs were treated with Triton-X 100 and incubated at 37° C. for 10 minutes. Subsequently, 100 μL of ribogreen reagent was added to each well. The fluorescence intensities of Group A and Group B were measured using a multi-plate reader (λex 480 nm, λem 520 nm), and mRNA encapsulation efficiency (%) was calculated using Equation 1 below. The encapsulation efficiency for each LNP was determined as the average of two independent measurements.

[3] = Size, polydispersity index and surface charge of mRNA-LNP (Malvern Zetasizer Nano ZS90); format: physicochemical; conditions: for PDI / size (nm) Number: mRNA-LNP made with the ionizable lipid at its optimal formulation (Table 2); for size (nm) Number: diluted with PBS to 1 μg/mL mRNA; for Zeta (mV): surface charge of mRNA-LNP made with the ionizable lipid at its optimal formulation (Table 2)
Procedure: Each mRNA-LNPs produced in Example 27 was diluted with PBS to a final mRNA concentration of 1 μg/mL. The size, polydispersity index (PDI), and surface charge of the mRNA-LNPs were then measured using a Malvern Zetasizer Nano ZS90 (Malvern Instruments, UK).
For particles intended for systemic administration, such as via blood vessels, the particle size must be less than 200 nm in order to pass through the endothelial capillaries of the liver. In addition, the size distribution is considered uniform only when the PDI is 0.3 or less, which enables consistent and efficient therapeutic effects (Non-patent document 3 [Danaei, M. et al). Pharmaceutics 2018, 10, 57]).

female C57BL/6 mice = test: Protein expression efficiency of fLuc mRNA-LNPs after intramuscular injection (IVIS whole-body luminescence); format: in vivo; conditions: for Total flux 1 hour / Total flux 3 hours / Total flux 6 hours / Total flux 48 hours / Total flux 72 hours / Total flux: fLuc mRNA-LNP, intramuscular injection, luminescence at injection site, mice; for Total flux 1 hour: 1 hour after administration; for Total flux 3 hours: 3 hours after administration; for Total flux 6 hours: 6 hours after administration; for Total flux 48 hours: 48 hours after administration; for Total flux 72 hours: 72 hours after administration; for Total flux: after administration; for Fold increase in total flux at 3 h, MC3: relative to control LNP formulated with MC3; for Fold increase in total flux at 3 h, MC3 / Fold increase in total flux at 3 h, SM-102: 3 hours after intramuscular injection; for Fold increase in total flux at 3 h, SM-102: relative to control LNP formulated with SM-102
Procedure: fLuc mRNA-LNPs formulated using various ionizable lipids were prepared according to the method described in Example 27 and administered in vivo via intramuscular (I. M.) or intravenous (IV.) injection to compare the resulting protein expression efficiency in vivo. As a control, EGFP mRNA-LNPs formulated with commercially available ionizable lipids MC3 or SM-102 were used. All mRNA-LNPs were administered at equal mRNA doses per body weight across different concentration groups (n≥4).
Specifically, the dose of mRNA-LNPs was adjusted to 0.1-0.5 mg/kg of body weight, and the formulation was administered via I.M. or I.V. injection to female C57BL/6 mice (6-10 weeks old, Orient Bio, Korea) Subsequently, […], whole-body luminescence images were acquired using an in vivo imaging system (IVIS Lumina III, PerkinElmer, Walzam, MA, USA). To assess protein expression levels, 200 μL of D-luciferin (15 mg/mL) was administered via intraperitoneal (I.P.) injection 10 minutes prior to imaging. During image acquisition, the animals were anesthetized by inhalation of 3% isoflurane in 97% medical grade oxygen. In addition, the acquired luminescence images were quantitatively analyzed using imaging software (Living Image Software Version 4.4; PerkinElmer, USA).
After intramuscular injection of the fLuc mRNA-LNPs, the luminescence intensity at the injection site was measured over time.
Furthermore, the luminescence intensity at the injection site 3 hours after intramuscular injection was measured, and the relative protein expression efficiency was compared to that of control LNPs formulated with MC3 or SM-102.

SMILES	Normalized EE % D-1 ([1]; fLuc mRNA-LNP stored at 4° C.)	Size (nm) D-1 ([1]; fLuc mRNA-LNP stored at 4° C.)	Normalized EE % D-7 ([1]; fLuc mRNA-LNP stored at 4° C.)	PDI D-7 ([1]; fLuc mRNA-LNP stored at 4° C.)	Size (nm) D-7 ([1]; fLuc mRNA-LNP stored at 4° C.)	Normalized EE % D-30 ([1]; fLuc mRNA-LNP stored at 4° C.)	PDI D-30 ([1]; fLuc mRNA-LNP stored at 4° C.)	Size (nm) D-30 ([1]; fLuc mRNA-LNP stored at 4° C.)	Normalized EE % D-1 ([1]; fLuc mRNA-LNP stored at 25° C.)	PDI D-1 ([1]; fLuc mRNA-LNP stored at 25° C.)	Size (nm) D-1 ([1]; fLuc mRNA-LNP stored at 25° C.)	Normalized EE % D-7 ([1]; fLuc mRNA-LNP stored at 25° C.)	PDI D-7 ([1]; fLuc mRNA-LNP stored at 25° C.)	Size (nm) D-7 ([1]; fLuc mRNA-LNP stored at 25° C.)	Normalized EE % D-30 ([1]; fLuc mRNA-LNP stored at 25° C.)	PDI D-30 ([1]; fLuc mRNA-LNP stored at 25° C.)	Size (nm) D-30 ([1]; fLuc mRNA-LNP stored at 25° C.)	EE (%) [2]	PDI [3]	size (nm) Number [3]	further results
CCCCCCCCCCCOC(=O)CCCCCN(CCCCCCCC(=O)OC(CCCCCCCC)CCCCCCCC)CC(O)CCCCNC(=O)c1ncc[nH]1 (stereo not shown) [Compound 33, Heptadecan-9-yl 8-((2-hydroxy-6-(1H-imidazole-2-carboxamido)hexyl)(6-oxo-6-(undecyloxy)hexyl)amino)octanoate]	90.0%	112.8 nm	83.3%	0.079	120.3 nm	89.3%	0.113	115.6 nm	90.0%	0.145	112.8 nm	82.1%	0.133	122.9 nm	87.2%	0.113	106.4 nm	90%	0.145	113 nm	Zeta (mV) [3]: −8.94 mV; Total flux 1 hour (female C57BL/6 mice): 1.80E+06; Total flux 3 hours (female C57BL/6 mice): 1.17E+07; Total flux 6 hours (female C57BL/6 mice): 1.26E+07; Total flux 48 hours (female C57BL/6 mice): 4.56E+05; Total flux 72 hours (female C57BL/6 mice): 4.96E+05; Total flux (female C57BL/6 mice): 2.62E+06; Fold increase in total flux at 3 h, MC3 (female C57BL/6 mice): 0.94; Fold increase in total flux at 3 h, SM-102 (female C57BL/6 mice): 0.10
CCCCCCCCCCCOC(=O)CCCCCN(CCCCCCCC(=O)OC(CCCCCCCC)CCCCCCCC)CC(O)CCCCNC(=O)c1c[nH]cn1 (stereo not shown) [Compound 34, Heptadecan-9-yl 8-((2-hydroxy-6-(1H-imidazole-4-carboxamido)hexyl)(6-oxo-6-(undecyloxy)hexyl)amino)octanoate]	94.0%	116.7 nm	92.9%	0.126	121.7 nm	91.4%	0.079	164.4 nm	94.0%	0.143	116.7 nm	90.9%	0.139	129.6 nm	89.3%	0.132	164.4 nm	94%	0.143	117 nm	Zeta (mV) [3]: −1.50 mV; Total flux 1 hour (female C57BL/6 mice): 6.37E+06; Total flux 3 hours (female C57BL/6 mice): 3.60E+07; Total flux 6 hours (female C57BL/6 mice): 1.70E+07; Total flux 48 hours (female C57BL/6 mice): 1.11E+06; Total flux 72 hours (female C57BL/6 mice): 7.64E+05; Total flux (female C57BL/6 mice): 2.79E+06; Fold increase in total flux at 3 h, MC3 (female C57BL/6 mice): 2.91; Fold increase in total flux at 3 h, SM-102 (female C57BL/6 mice): 0.32
